Series [1] deals with T1, hMAO-B (Homo sapiens, UniProt P27338).
T1 sequence (P27338 1-520): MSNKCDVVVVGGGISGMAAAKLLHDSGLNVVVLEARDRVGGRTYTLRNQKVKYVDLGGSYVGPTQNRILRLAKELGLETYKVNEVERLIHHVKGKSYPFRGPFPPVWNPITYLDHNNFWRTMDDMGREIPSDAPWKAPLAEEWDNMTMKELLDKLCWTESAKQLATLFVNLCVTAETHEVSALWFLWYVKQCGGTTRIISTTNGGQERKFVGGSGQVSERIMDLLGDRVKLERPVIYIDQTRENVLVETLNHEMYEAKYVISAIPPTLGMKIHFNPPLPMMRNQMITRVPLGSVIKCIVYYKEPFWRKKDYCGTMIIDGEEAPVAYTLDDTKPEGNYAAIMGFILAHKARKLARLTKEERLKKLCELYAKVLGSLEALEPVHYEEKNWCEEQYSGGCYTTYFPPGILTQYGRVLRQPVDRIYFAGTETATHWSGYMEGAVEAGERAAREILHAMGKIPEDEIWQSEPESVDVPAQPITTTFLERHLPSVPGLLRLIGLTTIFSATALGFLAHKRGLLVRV
Briefly: hMAO-B inhibition, IC50 determination (kynuramine fluorescence). It is filed as biochemical. The following applies: for Selectivity index (SI) for the MAO-B isoform: ratio (IC50 hMAO-A)/(IC50 hMAO-B). As to the method: The procedure for the measurement of IC50 values for the inhibition of MAO has been reported. The enzyme reactions were prepared to a volume of […] in potassium phosphate buffer at pH 7.4 (100 mM, made isotonic with KCl) and contained kynuramine (50 μM) and the test inhibitors (0.003–100 µM). Stock solutions of the test inhibitors were prepared in DMSO and added to the reactions to yield 4% DMSO. The enzyme reactions were initiated with the addition of recombinant hMAO-A (0.0075 mg protein/mL) or hMAO-B (0.015 mg protein/mL) and incubated for 20 min at 37 °C. At endpoint, the reactions were terminated with 80 µL sodium hydroxide (2N) and the fluorescence of 4-hydroxyquinoline, the oxidation product of kynuramine, was measured (λex = 310; λem = 400 nm)[33]. 4-Hydroxyquinoline was quantified with a calibration curve (0.047–1.56 μM) and the rate of 4-hydroxyquinoline formation was fitted to the one site competition model of the Prism 5 software package (GraphPad). From the resulting sigmoidal plots, the IC50 values were estimated. All enzyme reactions were carried out in triplicate and IC50 values are given as the mean ± standard deviation (SD).

Series [2] can be described thus: DPPH radical scavenging activity. How it is done:
The radical scavenging effect of the compounds using the 1,1-diphenyl-2-picrylhydrazyl (DPPH) radical was estimated according to Zengin et al.[36]. The sample solution (1 ml) was added to 4 ml of a 0.004% solution of DPPH in methanol. The sample absorbance was recorded at 517 nm after 30 min incubation at room temperature in the dark.
(§1) The scavenging activity of the compounds on the ABTS radical cation [ABTS,2,2′-azino-bis(3-ethylbenzothiazoline)-6-sulphonic acid] was measured according to the method of Zengin et al.[37] with slight modification. Briefly, ABTS^+ was produced directly by reacting a 7 mM ABTS solution with 2.45 mM potassium persulphate and allowing the mixture to incubate for 12–16 h in the dark at room temperature. Prior to initiating the assay, the ABTS solution was diluted with methanol to an absorbance of 0.700 ± 0.02 at 734 nm. The sample solution (1 ml) was added to the ABTS^+ solution (2 ml) and mixed, and the sample absorbance was recorded at 734 nm after 30 min incubation at room temperature. The corresponding IC50 value, which is the effective concentration at which 50% of DPPH/ABTS radicals are scavenged, was calculated for each compound and trolox, as a reference drug.

A short description of series [3]: Phosphomolybdenum assay (PhosphoMo), total antioxidant activity. The following applies: concentration at which absorbance was 0.5. How it is done:
The total antioxidant activity of the compounds was evaluated by phosphomolybdenum method according to Zengin et al.[35]. The sample solution (0.3 ml) was combined with 3 ml of reagent solution (0.6 M sulphuric acid, 28 mM sodium phosphate, and 4 mM ammonium molybdate) and the absorbance was recorded at 695 nm after 90 min incubation at 95 °C. The EC50, which is the effective concentration at which the absorbance was 0.5, was calculated for each compound and trolox, as a reference drug.

A short description of series [4]: Metal chelating activity on ferrous ions. The following applies: ferrozine. How it is done:
Metal chelating activity on ferrous ions was evaluated by the method previously described. Briefly, the sample solution (2 ml) was added to FeCl2 solution (0.05 ml, 2 mM). The reaction was initiated by the addition of 5 mM ferrozine (0.2 ml). Similarly, a blank was prepared by adding the sample solution (2 ml) to FeCl2 solution (0.05 ml, 2 mM) and water (0.2 ml) without ferrozine. Then, the sample and blank absorbance were recorded at 562 nm after incubation for 10 min at room temperature. The absorbance of the blank was subtracted from that of the sample. EDTA was used as a positive control and this property was expressed as IC50 value for each compound.

A short description of series [5]: Cupric ion reducing activity (CUPRAC). As to the method:
The cupric ion reducing activity (CUPRAC) was determined according to the method of Zengin et al.[38]. The sample solution (0.5 ml) was added to a premixed reaction mixture containing CuCl2 (1 ml, 10 mM), neocuproine (1 ml, 7.5 mM), and NH4Ac buffer (1 ml, 1 M, pH 7.0). Similarly, a blank was prepared by adding the sample solution (0.5 ml) to a premixed reaction mixture (3 ml) without CuCl2. The absorbances of the sample and blank were subsequently recorded at 450 nm after 30 min incubation at room temperature. The absorbance of the blank was subtracted from that of the sample.
(§2) The FRAP (ferric reducing antioxidant power) assay was carried out as described by Zengin et al.[38]. The sample solution (0.1 ml) was added to the premixed FRAP reagent (2 ml) containing acetate buffer (0.3 M, pH 3.6), 2,4,6-tris(2-pyridyl)-s-triazine (10 mM) in 40 mM HCl, and ferric chloride (20 mM) in a ratio of 10/1/1 (v/v/v). The absorbance of the sample was subsequently recorded at 593 nm after 30 min incubation at room temperature. Both results were expressed as EC50 values, using trolox as a reference drug.

Series [6] in a line: ABTS radical cation scavenging activity. How it is done: as §1
A short description of series [7]: FRAP (ferric reducing antioxidant power) assay. As to the method:
as §2

For series [8], the target named is T1, hMAO-B. Briefly: Reversibility of MAO-B inhibition by dialysis. It is filed as biochemical. As to the method: Stock solutions of the test compounds were prepared in DMSO and added to the incubations to yield 4% DMSO. The samples were dialyzed for 24 h at 4 °C in 80 ml of dialysis buffer using Slide-A-Lyzer® dialysis cassettes (Thermo Scientific) with a molecular weight cut-off of 10,000 and a sample volume capacity of 0.5–3 ml. The dialysis buffer was replaced at 3 and 7 h after the start of dialysis. Following dialysis, the dialysis samples were diluted twofold with the addition of kynuramine to yield a kynuramine concentration and inhibitor concentration of 50 µM and 2 × IC50, respectively. The reactions (500 µL) were incubated for 20 min at 37 °C and terminated with NaOH (400 μL, 2 N) and water (1000 µL). The fluorescence of 4-hydroxyquinoline in these samples was measured as described for the IC50 determination above. […] Undialysed mixtures of MAO-B and the test inhibitors were maintained at 4 °C for 24 h and diluted and assayed as above. All reactions were carried out in triplicate and the residual enzyme catalytic rates are expressed as mean ± SD.
Reversibility of MAO inhibition is an important factor to consider when evaluating the inhibition properties of potential inhibitors. Irreversible MAO inhibitors, particularly of the MAO-A isoform, are associated with dangerous adverse effects such as the cheese reaction, which occurs when irreversible MAO-A inhibitors are taken with tyramine-rich food[51]. […] The samples were diluted twofold and the residual MAO-B activity was measured. For reversible inhibition, dialysis is expected to reverse inhibition by the test inhibitors and restore enzyme activity to the level of the negative control. […] A final experiment consisted of incubations containing MAO-B and tested inhibitors which were not dialyzed, but maintained for 24 h.

For series [9], the target named is T1, hMAO-B. Briefly: Lineweaver-Burk plots, mode of inhibition and Ki. It is filed as biochemical. How it is done: To construct Lineweaver–Burk plots, the enzyme reactions were carried out to a volume of 500 µL and the concentration of MAO-B was 0.015 mg protein/mL. All enzyme reactions and activity measurements were carried out as described above for the dialysis experiments. The first plot was constructed in the absence of inhibitor, while the remaining five plots were constructed in the presence of the following concentrations: ¼ × IC50, ½ × IC50, ¾ × IC50, 1 × IC50 and 1¼ × IC50. For each line, kynuramine was used at concentrations of 15–250 μM. The Ki value was estimated from a plot of the slopes of the Lineweaver–Burk plots versus inhibitor concentration (x-axis intercept equals –Ki).
To provide further support for the reversibility of MAO-B inhibition by compounds 4 and 37, a set of Lineweaver–Burk plots was constructed for each inhibitor at the following inhibitor concentrations: ¼ × IC50, ½ × IC50, ¾ × IC50, 1 × IC50, and 1¼ × IC50. The substrate, kynuramine, was used at 15–250 µM for each line. […] The lines of the plots intersect on the y-axis and a replot of the slopes versus inhibitor concentration yields a linear line, from which the enzyme-inhibitor dissociation constant (Ki) was estimated (Ki = −x-axis intercept).

Setting [10] is: recombinant hMAO-B, kynuramine 50 μM, 20 min, 37 °C, read-out: IC50 hMAO-B.

Structures are written as SMILES. Like-named read-outs stand apart in the source and are kept apart here.

In turn, `O=[N+]([O-])c1cccc(-c2csc(NN=Cc3ccco3)n2)c1` [Compound 1, 1-(Furan-2-ylmethylene)-2-(4-(3-nitrophenyl)thiazol-2-yl)hydrazine] displayed a melting point of 213 to 215 °C. For the same compound, the IC50 at hMAO-B [1] (setting [10]) is 0.095 µM.
In the case of `CC(=NNc1nc(-c2cccc([N+](=O)[O-])c2)cs1)c1ccsc1` [Compound 5, 1-(4-(3-Nitrophenyl)thiazol-2-yl)-2-(1-(thiophen-3-yl)ethylidene)hydrazine], the IC50 in [2] is 1210 ± 10 µM; against hMAO-B [1], 0.0025 µM; in series [4], greater than 5000 µM; in series [6], 1050 ± 20 µM. Further, the values for the concentration for a half-maximal effect (EC50) in [3], in series [5] and in series [7] were 1160 ± 30 µM, 480 ± 30 µM and 520 ± 20 µM, respectively.
`CC(=NNc1nc(-c2cccc([N+](=O)[O-])c2)cs1)c1ccccc1` [Compound 11, 1-(4-(3-Nitrophenyl)thiazol-2-yl)-2-(1-phenylethylidene)hydrazine] came in with a melting point of 261 to 263 °C. In series [2], the IC50 was 1280 ± 10 µM. Besides, at hMAO-B [1], half-maximal inhibition (IC50) was put at 0.0071 µM and the “Selectivity index (SI) for the MAO-B isoform” value (shortened to “Selectivity index (SI)”) is given as 666. Further, the response in [3] was half-maximal at 1460 ± 80 µM (EC50). Further, the 50% inhibitory concentration (IC50) in [4] was greater than 5000 µM. For the same compound, the concentration for a half-maximal effect (EC50) in series [5] worked out at 550 ± 20 µM. For the same compound, the midpoint of inhibition in series [6], the IC50, lay at 1040 ± 10 µM. This compound also came in with an EC50 in series [7] of 590 ± 10 µM.
For `CC(=NNc1nc(-c2cccc([N+](=O)[O-])c2)cs1)c1ccccc1[N+](=O)[O-]` [Compound 13, 1-(1-(2-Nitrophenyl)ethylidene)-2-(4-(3-nitrophenyl)thiazol-2-yl)hydrazine], the IC50 was 1590 ± 10 µM in series [2], 0.0044 µM at hMAO-B [1] (setting [10]), greater than 5000 µM in series [4] and 1040 ± 10 µM in series [6]. Besides, at hMAO-B [1], the “Selectivity index (SI)” value is listed as 3477. The concentration giving a half-maximal response (EC50) in series [3] is 3100 ± 360 µM; in [5], 400 ± 10 µM; in series [7] it was 450 ± 40 µM.
The compound `CC(=O)c1ccc(C(C)=NNc2nc(-c3cccc([N+](=O)[O-])c3)cs2)cc1` [Compound 31, 1-(1-(4-Acetylphenyl)ethylidene)-2-(4-(3-nitrophenyl)thiazol-2-yl)hydrazine] gave a melting point of 205 to 207 °C. Also, the “Selectivity index (SI)” value on hMAO-B [1] is 5.4. Moreover, on hMAO-B [1] (setting [10]), the IC50 is 42.1 µM.
`Nc1cccc(-c2csc(N/N=C/c3cccs3)n2)c1` [Compound 37] yielded an IC50 on hMAO-B [1] of 2.67 µM. Besides, the “Reversibility of MAO-B inhibition” value at hMAO-B [8] (dialysis 24 h) is reported as “fully reversible”. Also, the “Residual MAO-B activity, undialysed mixtures” value on hMAO-B [8] (inhibitor at 4 × IC50, not dialyzed, maintained 24 h) worked out at 20%. Further, the “Residual MAO-B activity after dialysis” value at hMAO-B [8] (inhibitor at 4 × IC50, preincubated 15 min, dialyzed 24 h, relative to negative control) was determined as 97%. In addition, the affinity at hMAO-B [9] corresponds to a Ki of 1.84 µM. The “Mode of MAO-B inhibition” value at hMAO-B [9] (Lineweaver-Burk plots) is reported as “competitive”.

(Values after paper PMC6366404, “4-(3-Nitrophenyl)thiazol-2-ylhydrazone derivatives as antioxidants and selective hMAO-B inhibitors: synthesis, biological activity and computational analysis” (Journal of Enzyme Inhibition and Medicinal Chemistry, 2019).)
